PubChem BioAssay (NCI)
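Method: 48-hour compound exposure of cells in 96-well plates, five concentrations, linear interpolation of endpoints. TGI: total growth inhibition.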

Legend:
Assay in all cases: NCI-60 cell line screen, 48 h
SK-MEL-2 melanoma = tested on: SK-MEL-2 melanoma
HT29 colon = tested on: HT29 colon
MDA-N = tested on: MDA-N
IGROV1 ovarian = tested on: IGROV1 ovarian
NCI/ADR-RES ovarian = tested on: NCI/ADR-RES ovarian
CCRF-CEM leukemia = tested on: CCRF-CEM leukemia
ACHN renal = tested on: ACHN renal
LOX IMVI melanoma = tested on: LOX IMVI melanoma
NCI-H23 lung = tested on: NCI-H23 lung
SW-620 colon = tested on: SW-620 colon
SR leukemia = tested on: SR leukemia
HCT-15 colon = tested on: HCT-15 colon
NCI-H460 lung = tested on: NCI-H460 lung
SF-268 CNS = tested on: SF-268 CNS
OVCAR-4 ovarian = tested on: OVCAR-4 ovarian
NCI-H522 lung = tested on: NCI-H522 lung
RXF 393 renal = tested on: RXF 393 renal
DU-145 prostate = tested on: DU-145 prostate
SN12C renal = tested on: SN12C renal
U251 CNS = tested on: U251 CNS
OVCAR-3 ovarian = tested on: OVCAR-3 ovarian
PC-3 prostate = tested on: PC-3 prostate
COLO 205 colon = tested on: COLO 205 colon
EKVX NSCLC = tested on: EKVX NSCLC
T-47D breast = tested on: T-47D breast
HL-60(TB) leukemia = tested on: HL-60(TB) leukemia
UACC-257 melanoma = tested on: UACC-257 melanoma
A498 renal = tested on: A498 renal
K-562 leukemia = tested on: K-562 leukemia
MOLT-4 leukemia = tested on: MOLT-4 leukemia
SK-MEL-28 melanoma = tested on: SK-MEL-28 melanoma
786-0 renal = tested on: 786-0 renal
HOP-92 NSCLC = tested on: HOP-92 NSCLC
HS 578T breast = tested on: HS 578T breast
KM12 colon = tested on: KM12 colon
HCT-116 colon = tested on: HCT-116 colon
CAKI-1 renal = tested on: CAKI-1 renal
TK-10 renal = tested on: TK-10 renal
MCF7 breast = tested on: MCF7 breast
HOP-62 NSCLC = tested on: HOP-62 NSCLC
SNB-75 CNS = tested on: SNB-75 CNS
OVCAR-5 ovarian = tested on: OVCAR-5 ovarian
MALME-3M melanoma = tested on: MALME-3M melanoma
SK-MEL-5 melanoma = tested on: SK-MEL-5 melanoma
SF-539 CNS = tested on: SF-539 CNS
MDA-MB-435 = tested on: MDA-MB-435
SF-295 CNS = tested on: SF-295 CNS
SK-OV-3 ovarian = tested on: SK-OV-3 ovarian
UACC-62 melanoma = tested on: UACC-62 melanoma
NCI-H226 lung = tested on: NCI-H226 lung
RPMI-8226 leukemia = tested on: RPMI-8226 leukemia
MDA-MB-231 breast = tested on: MDA-MB-231 breast
HCC-2998 colon = tested on: HCC-2998 colon
OVCAR-8 ovarian = tested on: OVCAR-8 ovarian
BT-549 breast = tested on: BT-549 breast
UO-31 renal = tested on: UO-31 renal
A549 NSCLC = tested on: A549 NSCLC
M14 melanoma = tested on: M14 melanoma

Compound: O=C1CC(O)c2cscc21 (configuration not stated)
- TGI (SK-MEL-2 melanoma): > 100 µM
- TGI (HT29 colon): > 100 µM
- TGI (MDA-N): > 100 µM
- TGI (IGROV1 ovarian): > 100 µM
- TGI (NCI/ADR-RES ovarian): > 100 µM
- TGI (CCRF-CEM leukemia): 45.8 µM
- TGI (ACHN renal): > 100 µM
- TGI (LOX IMVI melanoma): > 100 µM
- TGI (NCI-H23 lung): > 100 µM
- TGI (SW-620 colon): > 100 µM
- TGI (SR leukemia): > 100 µM
- TGI (HCT-15 colon): > 100 µM
- TGI (NCI-H460 lung): > 100 µM
- TGI (SF-268 CNS): > 100 µM
- TGI (OVCAR-4 ovarian): > 100 µM
- TGI (NCI-H522 lung): > 100 µM
- TGI (RXF 393 renal): > 100 µM
- TGI (DU-145 prostate): > 100 µM
- TGI (SN12C renal): > 100 µM
- TGI (U251 CNS): > 100 µM
- TGI (OVCAR-3 ovarian): > 100 µM
- TGI (PC-3 prostate): > 100 µM
- TGI (COLO 205 colon): > 100 µM
- TGI (EKVX NSCLC): > 100 µM
- TGI (T-47D breast): > 100 µM
- TGI (HL-60(TB) leukemia): > 100 µM
- TGI (UACC-257 melanoma): > 100 µM
- TGI (A498 renal): > 100 µM
- TGI (K-562 leukemia): > 100 µM
- TGI (MOLT-4 leukemia): > 100 µM
- TGI (SK-MEL-28 melanoma): > 100 µM
- TGI (786-0 renal): > 100 µM
- TGI (HOP-92 NSCLC): > 100 µM
- TGI (HS 578T breast): > 100 µM
- TGI (KM12 colon): > 100 µM
- TGI (HCT-116 colon): > 100 µM
- TGI (CAKI-1 renal): > 100 µM
- TGI (TK-10 renal): > 100 µM
- TGI (MCF7 breast): > 100 µM
- TGI (HOP-62 NSCLC): > 100 µM
- TGI (SNB-75 CNS): > 100 µM
- TGI (OVCAR-5 ovarian): > 100 µM
- TGI (MALME-3M melanoma): > 100 µM
- TGI (SK-MEL-5 melanoma): > 100 µM
- TGI (SF-539 CNS): > 100 µM
- TGI (MDA-MB-435): > 100 µM
- TGI (SF-295 CNS): > 100 µM
- TGI (SK-OV-3 ovarian): > 100 µM
- TGI (UACC-62 melanoma): > 100 µM
- TGI (NCI-H226 lung): > 100 µM
- TGI (RPMI-8226 leukemia): > 100 µM
- TGI (MDA-MB-231 breast): > 100 µM
- TGI (HCC-2998 colon): > 100 µM
- TGI (OVCAR-8 ovarian): > 100 µM
- TGI (BT-549 breast): > 100 µM

Compound: COC(=O)[C@@H]1CO[C@H](C(C)(C)C)N1C(=O)N1C=CC(=O)C[C@H]1C
- TGI (SK-MEL-2 melanoma): > 100 µM
- TGI (HT29 colon): > 100 µM
- TGI (MDA-N): > 100 µM
- TGI (IGROV1 ovarian): > 100 µM
- TGI (NCI/ADR-RES ovarian): > 100 µM
- TGI (CCRF-CEM leukemia): > 100 µM
- TGI (ACHN renal): > 100 µM
- TGI (LOX IMVI melanoma): > 100 µM
- TGI (NCI-H23 lung): > 100 µM
- TGI (SW-620 colon): > 100 µM
- TGI (SR leukemia): > 100 µM
- TGI (SF-268 CNS): > 100 µM
- TGI (NCI-H522 lung): > 100 µM
- TGI (RXF 393 renal): > 100 µM
- TGI (DU-145 prostate): > 100 µM
- TGI (UO-31 renal): > 100 µM
- TGI (SN12C renal): > 100 µM
- TGI (U251 CNS): > 100 µM
- TGI (A549 NSCLC): > 100 µM
- TGI (OVCAR-3 ovarian): > 100 µM
- TGI (PC-3 prostate): > 100 µM
- TGI (COLO 205 colon): > 100 µM
- TGI (EKVX NSCLC): > 100 µM
- TGI (T-47D breast): > 100 µM
- TGI (HL-60(TB) leukemia): > 100 µM
- TGI (UACC-257 melanoma): > 100 µM
- TGI (A498 renal): > 100 µM
- TGI (K-562 leukemia): > 100 µM
- TGI (SK-MEL-28 melanoma): > 100 µM
- TGI (786-0 renal): > 100 µM
- TGI (HOP-92 NSCLC): > 100 µM
- TGI (HS 578T breast): > 100 µM
- TGI (KM12 colon): > 100 µM
- TGI (HCT-116 colon): > 100 µM
- TGI (CAKI-1 renal): > 100 µM
- TGI (TK-10 renal): > 100 µM
- TGI (MCF7 breast): > 100 µM
- TGI (HOP-62 NSCLC): > 100 µM
- TGI (SNB-75 CNS): > 100 µM
- TGI (OVCAR-5 ovarian): > 100 µM
- TGI (MALME-3M melanoma): > 100 µM
- TGI (SK-MEL-5 melanoma): > 100 µM
- TGI (MDA-MB-435): > 100 µM
- TGI (SF-295 CNS): > 100 µM
- TGI (SK-OV-3 ovarian): > 100 µM
- TGI (M14 melanoma): > 100 µM
- TGI (UACC-62 melanoma): > 100 µM
- TGI (NCI-H226 lung): > 100 µM
- TGI (RPMI-8226 leukemia): > 100 µM
- TGI (MDA-MB-231 breast): > 100 µM
- TGI (OVCAR-8 ovarian): > 100 µM
- TGI (BT-549 breast): > 100 µM
